Test results: patent publication US11084826B2, “RSV antiviral pyrazolo- and triazolo-pyrimidine compounds” (Janssen Sciences Ireland Unlimited Company, priority 2015, dated 2021)

Tests used:
[1] = Cytotoxicity in HeLa cells, ATP content measured with the ATPlite kit; assay type: cell-based; details: human, TOX HELA pCC50
Experimental: (§1) Black 384-well clear-bottom microtiter plates (Corning, Amsterdam, The Netherlands) were filled via acoustic drop ejection using the echo liquid handler (Labcyte, Sunnyvale, Calif.). 200 nL of compound stock solutions (100% DMSO) were transferred to the assay plates. 9 serial 4-fold dilutions of compound were made, creating per quadrant the same compound concentration. The assay was initiated by adding 10 μL of culture medium to each well (RPMI medium without phenol red, 10% FBS-heat inactivated, 0.04% gentamycin (50 mg/mL). All addition steps are done by using a multidrop dispenser (Thermo Scientific, Erembodegem, Belgium). Next, rgRSV224 virus (MOI=1) diluted in culture medium was added to the plates. rgRSV224 virus is an engineered virus that includes an additional GFP gene (Hallak LK, Spillmann D, Collins PL, Peeples Me. Glycosaminoglycan sulfation requirements for respiratory syncytial virus infection; Journal of virology (2000), 74(22), 10508-13) and was in-licensed from the NIH (Bethesda, Md., USA). Finally, 20 μL of a HeLa cell suspension (3,000 cells/well) were plated. Medium, virus- and mock-infected controls were included in each test. The wells contain 0.05% DMSO per volume. Cells were incubated at 37° C. in a 5% CO2 atmosphere. Three days post-virus exposure, viral replication was quantified by measuring GFP expression in the cells by an in house developed MSM laser microscope (Tibotec, Beerse, Belgium). The EC50 was defined as the 50% inhibitory concentration for GFP expression. In parallel, compounds were incubated for three days in a set of white 384-well microtiter plates (Corning) and the cytotoxicity of compounds in HeLa cells was determined by measuring the ATP content of the cells using the ATPlite kit (Perkin Elmer, Zaventem, Belgium) according to the manufacturer's instructions. The CC50 was defined as the 50% concentration for cytotoxicity.

rgRSV224 virus = experiment: Antiviral activity: inhibition of rgRSV224 (GFP-expressing RSV) replication in HeLa cells, GFP expression read-out; assay type: cell-based, respiratory syncytial virus (RSV); details: human respiratory syncytial virus, HeLa, read-out: RSV HELA pEC50, rgRSV224 virus (MOI=1) in HeLa cells, GFP read-out (converted)
Experimental: as §1

| SMILES | CC50 at 3 days [1] [nM] | EC50 (rgRSV224 virus) [nM] |
| --- | --- | --- |
| C[C@@H]1CCCCCN1C(=O)c1cc(C2(C)COC2)n2nc(-c3cccc(/C=C/C(=O)O)c3F)cc2n1 [Compound M33] | > 100000 | 102 |
| CCCCC(C)N(C)C(=O)c1cc(CC)n2nc(-c3ccccc3F)cc2n1 (centres unmarked) [Compound A17] | 40700 | 1510 |
| CCc1cc(C(=O)N2CCCCC[C@H]2C)nc2cc(-c3ccc(-n4cc(C(=O)O)c(C)n4)cc3F)nn12 (racemic) [Compound W25] | 66100 | 93.3 |
| CCc1cc(C(=O)N2CCc3ccccc3C2C)nc2cc(-c3ccc(/C=C(\C)C(=O)O)cc3F)nn12 (centres unmarked) [Compound M17] | 17400 | 63.1 |
| C[C@@H]1c2ccccc2CCN1C(=O)c1cc(N2CCCC2)n2nc(-c3ccc(/C=C/C(=O)O)cc3F)cc2n1 [Compound M16] | 16600 | 13.2 |
| C[C@@H]1c2ccsc2CCN1C(=O)c1cc(C2(C)CC2)n2nc(-c3ccc(N4CC[C@H](C(=O)O)C4)cc3F)cc2n1 [Compound W44] | 49000 | 8.71 |
| CCc1cc(C(=O)N2CCCCC[C@H]2C)nc2cc(-c3ccc(C4[C@@H](C(=O)O)C4(F)F)cc3F)nn12 (mixture of isomers) [Compound O18] | 53700 | 191 |
| CC1c2ccsc2CCN1C(=O)c1cc(C2(C)CC2)n2nc(-c3ccc4c(c3F)OCC(C(=O)O)=C4)cc2n1 (racemic) [Compound F67] | 67600 | 39.8 |
| CCc1cc(C(=O)N2CCCCC[C@H]2C)nc2cc(-c3ccc(C4CC5(CC(C(=O)O)C5)C4)cc3F)nn12 (some centres unmarked) [Compound F47] | 46800 | 245 |
| CCc1cc(C(=O)N2CCc3ccccc3[C@H]2C)nc2cc(-c3ccc(-c4ccc(C(=O)O)cn4)cc3F)nn12 [Compound F23] | > 25100 | 40.7 |
| CCc1cc(C(=O)N2CCCCC[C@H]2C)nc2cc(-c3ccc(N(C)CC(=O)O)cc3F)nn12 [Compound W19] | > 100000 | 263 |
| CCc1cc(C(=O)N2CCCCCC2C)nc2cc(-c3ccc(-c4cncn4C)cc3F)nn12 (centres unmarked) [Compound F13] | > 25100 | 562 |
| CCc1cc(C(=O)N2CCn3cccc3[C@H]2C)nc2cc(-c3ccc([C@H]4C[C@@H]4C(=O)O)cc3F)nn12 (relative stereo) [Compound O19] | 91200 | 30.9 |
| CCc1cc(C(=O)N2CCCCC[C@H]2C)nc2cc(-c3ccc(/C=C/C(=O)O)c(OC)c3F)nn12 [Compound M32] | 66100 | 178 |
| C[C@@H]1CCCCCN1C(=O)c1cc(C2(C)COC2)n2nc(-c3ccc4c(c3F)OCC(C(=O)O)=C4)cc2n1 (racemic) [Compound F62] | > 25100 | 57.5 |
| CCCCc1nc(Cl)c(-c2cc3nc(C(=O)N4CCCCCC4C)cc(CC)n3n2)[nH]1 (centres unmarked) [Compound A22] | > 25100 | 603 |
| C[C@@H]1CCCCCN1C(=O)c1cc(C2CC2)n2nc(-c3cccc(/C=C/C(=O)O)c3F)cc2n1 [Compound M28] | 17800 | 93.3 |
| CCc1cc(C(=O)N2CCCCCC2C)nc2cc(-c3ccc(-c4cccnc4)cc3)nn12 (centres unmarked) [Compound F2] | 38900 | 2950 |
| C[C@@H]1CCCCCN1C(=O)c1cc(C2CC2)n2nc(-c3ccc4c(c3F)OCC(C(=O)O)=C4)cc2n1 [Compound F38] | 36300 | 51.3 |
| CCc1cc(C(=O)N2CCCCC[C@H]2C)nc2cc(-c3ccc(N(C)[C@H]4C[C@H](C(=O)O)C4)cc3F)nn12 (racemic) [Compound W22] | 87100 | 45.7 |
| CCc1cc(C(=O)N2CCCn3cccc3C2C)nc2cc(-c3ccc(-c4ccc(C(=O)O)cn4)cc3F)nn12 (racemic) [Compound F59] | > 25100 | 191 |
| CCc1cc(C(=O)N2CCCCCC2C)nc2cc(-c3ccc(C4CC4C(=O)O)cc3F)nn12 (centres unmarked) [Compound O1] | > 25100 | 123 |
| CCc1cc(C(=O)N2CCCCCC2C)nc2cc(-c3ccc(/C=C(\C)C(=O)O)cc3F)nn12 (centres unmarked) [Compound M13] | > 25100 | 224 |
| CCc1cc(C(=O)N2CCCCC[C@H]2C)nc2cc(-c3ccc(-c4cnc(C(=O)O)c(F)c4)cc3F)nn12 [Compound F19] | 36300 | 97.7 |
| C[C@@H]1CCCCCN1C(=O)c1cc(C2CCC2)n2nc(-c3ccc(N4CC[C@H](C(=O)O)C4)cc3F)cc2n1 [Compound W31] | 49000 | 12.6 |

| SMILES | CC50 at 3 days [1] [nM] | EC50 (rgRSV224 virus) [nM] |
| --- | --- | --- |
| CCc1cc(C(=O)N2CCc3ccccc3[C@H]2C)nc2cc(-c3ccc(/C=C/C(=O)O)cc3F)nn12 [Compound M15] | > 20400 | 15.1 |
| CCc1cc(C(=O)N2CCCCC[C@H]2C)nc2cc(-c3ccc(-n4cnc(C(=O)O)c4)cc3F)nn12 [Compound W29] | > 100000 | 363 |
| CCc1cc(C(=O)N2CCCCCC2C)nc2cc(-c3ccc(-c4cnn(C5CC5)c4)cc3F)nn12 (centres unmarked) [Compound F12] | > 25100 | 1380 |
| CCc1cc(C(=O)N2CCCCC[C@H]2C)nc2cc(-c3ccc(N(C)c4cc(C(=O)O)nn4C)cc3F)nn12 [Compound W21] | 21900 | 1020 |
| CCc1cc(C(=O)N2CCCCCC2C)nc2cc(-c3ccc(NS(=O)(=O)C4CC4)cc3F)nn12 (centres unmarked) [Compound D2] | > 50100 | 603 |
| CCc1cc(C(=O)N2CCCCC[C@H]2C)nc2cc(-c3ccc4ccc(C(=O)O)nc4c3F)nn12 [Compound F45] | 91200 | 43.7 |
| CCc1cc(C(=O)N2CCCCCC2C)nc2cc(-c3cc(NC(=O)C4CC4)ccc3F)nn12 (centres unmarked) [Compound E12] | 60300 | 447 |
| CCc1cc(C(=O)N2CCCCC[C@H]2C)nc2cc(-c3ccc(-c4ccnc(C(=O)O)c4)cc3F)nn12 [Compound F25] | 13500 | 43.7 |
| CCc1cc(C(=O)N2CCCCCC2C)nc2cc(-c3ccc(-c4cn[nH]c4)cc3F)nn12 (centres unmarked) [Compound F6] | > 25100 | 355 |
| CCc1cc(C(=O)N2CCCCCC2C)nc2cc(-c3ccc(-c4cnc(C)n4C)cc3F)nn12 (centres unmarked) [Compound F11] | > 25100 | 1350 |
| CCc1cc(C(=O)N2CCc3sc(C)cc3C2C)nc2cc(-c3ccc(-c4ccc(C(=O)O)cn4)cc3F)nn12 (racemic) [Compound F58] | 26300 | 170 |
| CCc1cc(C(=O)N2CCc3ccccc3C2C)nc2cc(-c3ccc(-c4ccc(C(=O)O)nc4)cc3F)nn12 (centres unmarked) [Compound F22] | 6920 | 35.5 |
| C[C@@H]1CCCCCN1C(=O)c1cc(C2(C)CC2)n2nc(-c3ccc(N4CC[C@H](C(=O)O)C4)cc3F)cc2n1 [Compound W30] | 50100 | 17.4 |
| C[C@@H]1CCCCCN1C(=O)c1cc(C2CCC2)n2nc(-c3ccc(-c4ccc(C(=O)O)cn4)cc3F)cc2n1 [Compound F32] | 32400 | 28.2 |
| CCc1cc(C(=O)N2CCCCC[C@H]2C)nc2cc(-c3ccc(-c4cc(=O)[nH]o4)cc3F)nn12 [Compound X1] | > 25100 | 93.3 |
| CCc1cc(C(=O)N2CCCCC[C@H]2C)nc2cc(-c3ccc([C@H]4CC[C@H](C(=O)O)CC4)cc3F)nn12 [Compound F37] | 38000 | 182 |
| CCc1cc(C(=O)N2CCn3c(Cl)ccc3C2C)nc2cc(-c3ccc(-c4ccc(C(=O)O)cn4)cc3F)nn12 (racemic) [Compound F56] | > 100000 | 155 |
| CCc1cc(C(=O)N2CCCCC[C@H]2C)nc2cc(-c3ccc(N4CCC[C@H](C(=O)O)C4)cc3F)nn12 [Compound W5] | 95500 | 89.1 |
| C[C@@H]1CCCCCN1C(=O)c1cc(C2CC2)n2nc(-c3cccc([C@H]4C[C@@H]4C(=O)O)c3F)cc2n1 [Compound O6] | 97700 | 148 |
| CCCC(C)N(CC)C(=O)c1cc(CC)n2nc(-c3ccc([C@H]4C[C@@H]4C(=O)O)cc3F)cc2n1 (relative stereo) [Compound O14] | 66100 | 219 |
| CCc1cc(C(=O)N2CCCCC[C@H]2C)nc2cc(-c3ccc(NC4(C(=O)O)CC4)cc3F)nn12 [Compound W16] | > 100000 | 269 |
| CNc1cc(C(=O)N2CCc3ccccc3[C@H]2C)nc2cc(-c3ccc(/C=C/C(=O)O)cc3F)nn12 [Compound M14] | 15800 | 24 |
| CCc1cc(C(=O)N2CCCCCC2C)nc2cc(C3CCCCC3)nn12 (centres unmarked) [Compound A5] | 33100 | 4790 |
| CCc1cc(C(=O)N2CCCc3ccccc3C2C)nc2cc(-c3ccc(/C=C/C(=O)O)cc3F)nn12 (centres unmarked) [Compound M18] | > 25100 | 77.6 |
